{"source": "patent US7071232B1", "about": "“Small molecules that increase the conversion of food to body weight gain” (priority 1998, dated 2006)", "key": {"[1]": {"system": "Peterson×Hubbard male broiler chicks", "settings": "in vivo"}, "[2]": {"system": "Peterson×Hubbard male broiler chicks", "settings": "in vivo", "remark": "listed apart in the source"}, "[3]": {"system": "Avian x Ross broiler chicks", "assay": "Second experiment, less environmental stress: feed efficiency ratios through day 14", "type": "in vivo", "settings": "for Feed efficiency ratio, MEAN: through day 14; for conversion of feed to weight vs saline (in words): day 14"}}, "note": "“And” between values parts separate entries of the source, which are not always exact repeats. Equal entries are not always repeated. Where two headings read alike, the source gives them in different places.", "data": [{"smiles": "NCCC(=O)NCCSSCCNC(=O)CCN", "note": "[beta-alethine]", "values": [{"measurement": "Survival (% Alive)", "setting": "[1]", "result": "96% and 100% and 99% and 98%"}, {"measurement": "chicks died in one pen", "setting": "[1]", "result": 5}, {"measurement": "mortality rate", "setting": "[1]", "result": 0, "unit": "%"}, {"measurement": "# dead from all causes of death (cumulative)", "setting": "[1]; sc", "result": 0}, {"measurement": "Survival (% Alive)", "setting": "[1]; sc", "result": 100, "unit": "%"}, {"measurement": "Deliverable Weight Ratio", "setting": "[2]", "result": 1.367}, {"measurement": "Deliverable Weight Ratio, % improvement vs negative control", "setting": "[2]", "result": 10.8, "unit": "%"}, {"measurement": "Feed Efficiency", "setting": "[2]", "result": 1.298}, {"measurement": "Feed Efficiency, % improvement vs negative control", "setting": "[2]", "result": 7.9, "unit": "%"}, {"measurement": "% decrease over saline control, saline #1", "setting": "[3]; 2 pg in ovo vs saline in ovo #1", "result": 0.34, "unit": "%"}, {"measurement": "% decrease over saline control, saline #2", "setting": "[3]; 2 pg in ovo vs saline in ovo #2", "result": "−0.34", "unit": "%"}, {"measurement": "Feed efficiency ratio, MEAN", "setting": "[3]; 2 pg per bird in ovo", "result": 1.181}, {"measurement": "Feed efficiency ratio, MEAN", "setting": "[3]; 2 pg per bird sc", "result": 1.173}, {"measurement": "% decrease over saline control", "setting": "[3]; 2 pg sc vs saline s.c. control", "result": "−0.89", "unit": "%"}, {"measurement": "% decrease over saline control, saline #1", "setting": "[3]; 2 ng in ovo + fed in water (2 ng weekly) vs saline in ovo #1", "result": 2.39, "unit": "%"}, {"measurement": "% decrease over saline control, saline #2", "setting": "[3]; 2 ng in ovo + fed in water (2 ng weekly) vs saline in ovo #2", "result": 1.73, "unit": "%"}, {"measurement": "Feed efficiency ratio, MEAN", "setting": "[3]; 2 ng in ovo + fed in water (2 ng weekly)", "result": 1.157}, {"measurement": "% decrease over saline control, saline #1", "setting": "[3]; 2 ng in ovo vs saline in ovo #1", "result": 3.21, "unit": "%"}, {"measurement": "conversion of feed to weight vs saline (in words)", "setting": "[3]; 2 ng in ovo", "result": "significantly greater conversion of feed to weight"}, {"measurement": "Feed efficiency ratio, MEAN", "setting": "[3]; 2 ng per bird in ovo", "result": 1.147}, {"measurement": "Feed efficiency ratio, MEAN", "setting": "[3]; 2 ng per bird sc", "result": 1.150}, {"measurement": "conversion of feed to weight vs saline (in words)", "setting": "[3]; 2 ng s.c., not significant vs s.c. saline", "result": "significantly better than saline given in ovo"}, {"measurement": "% decrease over saline control", "setting": "[3]; 2 ng sc vs saline s.c. control", "result": 1.16, "unit": "%"}, {"measurement": "average decrease in feed efficiency ratios", "setting": "[3]; normal flock of Avian×Ross broiler chicks", "result": "about 4%"}]}]}
